Results as given in US20260001914A1, “MACROCYCLIC PEPTIDES TARGETING KRAS” (Merck Sharp & Dohme LLC, priority 2022, published 2026).
*1 amine or outer side, *2 acyl side, *3 side chain or, on linkers, in order; H or OH if unused. Where a SMILES comes first, the peptide text is derived from it. Bridges are numbered along the chain shown (N, C = ends). [ ]: non-standard residue; d: D form. The star is where a group is joined. cBu(1-CO,cis-3-CH2NH) = O=C([C@H]1C[C@@H](CN[*:1])C1)[*:2]; Phe(4-guanidino) = N=C(N)Nc1ccc(C[C@H](N)C(=O)O)cc1; X18 = CNC(=N)N(C)c1ccc(C[C@H](N[*:1])C(=O)[*:2])cc1; X22 = CNC(=N)N(C)CCC[C@@H](C(=O)[*:2])N(C)[*:1]; Ala(pyrimidin-5-yl) = N[C@@H](Cc1cncnc1)C(=O)O; NMe3Pal(6-Me) = CN[C@@H](Cc1ccc(C)nc1)C(=O)O; X36 = CN([C@@H](Cc1cnn(C)c1)C(=O)[*:2])[*:1]; X26 = Cn1cc(C[C@H](N[*:1])C(=O)[*:2])cn1; Ethyl(2-pyrrolidin-1-yl) = C1CCN(CC*)C1; X32 = CS(=O)(=O)CCCN(CC(=O)[*:2])[*:1]; Phe(2-F) = N[C@@H](Cc1ccccc1F)C(=O)O; NMe3Pal = CN[C@@H](Cc1cccnc1)C(=O)O; X1 = O=C(C12CC(CN[*:1])(C1)C2)[*:2]; X12 = CC(=O)NCCCN(CC(=O)[*:2])[*:1]; X38 = NC(=O)CCCN(CC(=O)[*:2])[*:1]; NMeOrn(Me) = CNCCC[C@H](NC)C(=O)O; NMeF = CN[C@@H](Cc1ccccc1)C(=O)O; PhLac = O=C(O)[C@@H](O)Cc1ccccc1; 3Pal = N[C@@H](Cc1cccnc1)C(=O)O; Gly(N(CH2)3NH2) = NCCCNCC(=O)O; Ahp(2) = CCCCC[C@H](N)C(=O)O; Cba = N[C@@H](CC1CCC1)C(=O)O; αMeC = C[C@](N)(CS)C(=O)O; NMeA = CN[C@@H](C)C(=O)O; Nle = CCCC[C@H](N)C(=O)O

Molecular target: phosphorylation levels of ERK1/2 in AsPC-1 (homozygous KRAS-G12D) cells (Homo sapiens, UniProt P01116, G12D)
Sequence (P01116 1-186 G12D): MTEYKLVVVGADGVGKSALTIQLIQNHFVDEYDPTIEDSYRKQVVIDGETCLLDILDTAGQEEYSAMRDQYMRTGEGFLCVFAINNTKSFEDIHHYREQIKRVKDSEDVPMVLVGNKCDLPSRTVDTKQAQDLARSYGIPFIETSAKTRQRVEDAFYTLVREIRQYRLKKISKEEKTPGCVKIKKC
Experiment: Cellular phospho-ERK assay in AsPC-1 cells (Alpha Screen), assay medium without fetal bovine serum;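 note: signal taken as phospho-ERK over total ERK per well, both detected in one multiplex bead assay, EC50 from four-parameter logistic fit of dose-response curves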
Type: cell-based
Settings: phospho-ERK AlphaScreen, 18 h

Compound	EC50 [µM]
CCCCC[C@@H]1NC(=O)[C@H](Cc2ccc(OC)cc2)NC(=O)[C@H](CC2CCC2)NC(=O)[C@H](Cc2ccc(N(C)C(=N)NC)cc2)NC(=O)[C@H](CCCNC(=N)N)NC(=O)[C@H](Cc2ccccc2)NC(=O)CSC[C@@](C)(C(N)=O)NC(=O)[C@H](Cc2ccccc2)N(C)C1=O [compound 382, cyclo(F-R-Phe4GnMeMe-cBuA-TyrOMe-Ahp-NMeF-aMeCl-ClAc)]	> 50.8
CCCCC[C@@H]1NC(=O)[C@H](Cc2ccc(OC)cc2)NC(=O)[C@H](CC2CCC2)NC(=O)[C@H](Cc2ccc(OCCN3CCCC3)cc2)NC(=O)[C@H](CCCNC(=N)N)NC(=O)[C@H](Cc2ccccc2)NC(=O)CSC[C@@](C)(C(N)=O)NC(=O)[C@H](Cc2ccccc2)N(C)C1=O [compound 383, cyclo(F-R-TyrOEtPyr-cBuA-TyrOMe-Ahp-NMeF-aMeCl-ClAc)] ({CH2CO}-FRY(Ethyl(2-pyrrolidin-1-yl))[Cba]Y(Me)[Ahp(2)][NMeF][αMeC]-NH2; thioether N-8)	> 50.8
CCCC[C@@H]1NC(=O)[C@H](Cc2ccc(NC(=N)N)cc2)NC(=O)[C@H](CCCN(C)C(=N)NC)N(C)C(=O)[C@H](Cc2ccccc2)NC(=O)[C@H]2C[C@@H](CNC(=O)[C@H](Cc3ccccc3)N(C)C(=O)[C@H](CCCC)NC(=O)[C@H](Cc3ccc(OC)cc3)NC1=O)C2 [compound 384, cyclo(F-NMeArg1MeMe-Phe4Gn-Nle-TyrOMe-Nle-NMeF-c3amCblc)] (cyclo(F[X22][Phe(4-guanidino)][Nle]Y(Me)[Nle][NMeF][cBu(1-CO,cis-3-CH2NH)]))	> 50.8
CCCCC[C@@H]1NC(=O)[C@H](Cc2ccc(OC)cc2)NC(=O)[C@H](CC2CCC2)NC(=O)[C@H](Cc2ccc(NC(=N)N)cc2)NC(=O)[C@H](CCCNC)N(C)C(=O)[C@H](Cc2ccccc2)NC(=O)CSC[C@@](C)(C(N)=O)NC(=O)[C@H](Cc2ccccc2)N(C)C1=O [compound 385, cyclo(F-NMeOrnMe-Phe4Gn-cBuA-TyrOMe-Ahp-NMeF-aMeCl-ClAc)] ({CH2CO}-F[NMeOrn(Me)][Phe(4-guanidino)][Cba]Y(Me)[Ahp(2)][NMeF][αMeC]-NH2; thioether N-8)	> 50.8
CCCCC[C@@H]1NC(=O)[C@H](Cc2ccc(OC)cc2)NC(=O)[C@H](CC2CCC2)NC(=O)[C@H](Cc2ccc(NC(=N)N)cc2)NC(=O)CN(CCCC(N)=O)C(=O)[C@H](Cc2ccccc2)NC(=O)CSC[C@@](C)(C(N)=O)NC(=O)[C@H](Cc2ccccc2)N(C)C1=O [compound 386, cyclo(F-Cmpg-Phe4Gn-cBuA-TyrOMe-Abp-NMeF-aMeCl-ClAc)] ({CH2CO}-F[X38][Phe(4-guanidino)][Cba]Y(Me)[Ahp(2)][NMeF][αMeC]-NH2; thioether N-8)	> 50.8
CCCCC[C@@H]1NC(=O)[C@H](Cc2ccc(OC)cc2)NC(=O)[C@H](CC2CCC2)NC(=O)[C@H](Cc2ccc(NC(=N)N)cc2)NC(=O)CN(CCCNC(C)=O)C(=O)[C@H](Cc2ccccc2)NC(=O)CSC[C@@](C)(C(N)=O)NC(=O)[C@H](Cc2ccccc2)N(C)C1=O [compound 387, cyclo(F-AcApG-Phe4Gn-cBuA-TyrOMe-Ahp-NMcF-aMeCl-ClAc)] ({CH2CO}-F[X12][Phe(4-guanidino)][Cba]Y(Me)[Ahp(2)][NMeF][αMeC]-NH2; thioether N-8)	> 50.8
CCCCC[C@@H]1NC(=O)[C@H](Cc2ccc(OC)cc2)NC(=O)[C@H](CC2CCC2)NC(=O)[C@H](Cc2ccc(NC(=N)N)cc2)NC(=O)CN(CCCN)C(=O)[C@H](Cc2ccccc2)NC(=O)CSC[C@@](C)(C(N)=O)NC(=O)[C@H](Cc2ccccc2)N(C)C1=O [compound 388, cyclo(F-NPrNH2G-Phe4Gn-cBuA-TyrOMe-Ahp-NMeF-aMeCl-ClAc)] ({CH2CO}-F[Gly(N(CH2)3NH2)][Phe(4-guanidino)][Cba]Y(Me)[Ahp(2)][NMeF][αMeC]-NH2; thioether N-8)	> 50.8
CCCCC[C@@H]1NC(=O)[C@H](Cc2ccc(OC)cc2)NC(=O)[C@H](CC2CCC2)NC(=O)[C@H](Cc2ccc(NC(=N)N)cc2)NC(=O)CN(CCCS(C)(=O)=O)C(=O)[C@H](Cc2ccccc2)NC(=O)CSC[C@@](C)(C(N)=O)NC(=O)[C@H](Cc2ccccc2)N(C)C1=O [compound 389, cyclo(F-Mspg-Phe4Gn-cBuA-TyrOMe-Ahp-NMeF-aMeCl-ClAc)] ({CH2CO}-F[X32][Phe(4-guanidino)][Cba]Y(Me)[Ahp(2)][NMeF][αMeC]-NH2; thioether N-8)	> 50.8
CCCCC[C@@H]1NC(=O)[C@H](Cc2ccc(OC)cc2)NC(=O)[C@H](CC2CCC2)NC(=O)[C@H](Cc2ccc(-c3cccnc3N)cc2)NC(=O)[C@H](CCCNC(=N)N)NC(=O)[C@H](Cc2ccccc2)NC(=O)CSC[C@@](C)(C(N)=O)NC(=O)[C@H](Cc2ccccc2)N(C)C1=O [compound 390, cyclo(F-R-Phe43PyNH2-cBuA-TyrOMe-Ahp-NMeF-aMeCl-ClAc)]	> 50.8
CCCCC[C@@H]1NC(=O)[C@H](Cc2ccc(OC)cc2)NC(=O)[C@H](CC2CCC2)NC(=O)[C@H](Cc2ccc(N3CCC[C@@H]3CN)cc2)NC(=O)[C@H](CCCNC(=N)N)NC(=O)[C@H](Cc2ccccc2)NC(=O)CSC[C@@](C)(C(N)=O)NC(=O)[C@H](Cc2ccccc2)N(C)C1=O [compound 391, cyclo(F-R~Phe4RamPyrr-cBuA-TyrOMe-Abp-NMeF-aMeCl-ClAc)]	> 50.8
CCCCC[C@@H]1NC(=O)[C@H](Cc2ccc(OC)cc2)NC(=O)[C@H](CC2CCC2)NC(=O)[C@H](Cc2ccc(N3CCC[C@H]3CN)cc2)NC(=O)[C@H](CCCNC(=N)N)NC(=O)[C@H](Cc2ccccc2)NC(=O)CSC[C@@](C)(C(N)=O)NC(=O)[C@H](Cc2ccccc2)N(C)C1=O [compound 392, cyclo(F-R-Phe4SamPyrr-cBuA-TyrOMe-Ahp-NMeF-aMeCl-ClAc)]	> 50.8
CCCCC[C@@H]1NC(=O)[C@H](Cc2ccc(OC)cc2)NC(=O)[C@H](CC2CCC2)NC(=O)[C@H](Cc2cccnc2)NC(=O)[C@H](CCCNC)N(C)C(=O)[C@H](Cc2ccccc2)NC(=O)CSC[C@@](C)(C(N)=O)NC(=O)[C@H](Cc2ccc(C)nc2)N(C)C1=O [compound 393, cyclo(F-NMeOrnMe-3Pal-cBuA-TyrOMe-Ahp-NMe3Pal4Me-aMeCl-ClAc)] ({CH2CO}-F[NMeOrn(Me)][3Pal][Cba]Y(Me)[Ahp(2)][NMe3Pal(6-Me)][αMeC]-NH2; thioether N-8)	> 50.8
CCCCC[C@@H]1NC(=O)[C@H](Cc2ccc(OC)cc2)NC(=O)[C@H](CC2CCC2)NC(=O)[C@H](Cc2cncnc2)NC(=O)[C@H](CCCNC)N(C)C(=O)[C@H](Cc2ccccc2)NC(=O)CSC[C@@](C)(C(N)=O)NC(=O)[C@H](Cc2ccc(C)nc2)N(C)C1=O [compound 394, cyclo(F-NMeOmMe-PyrimAla-cBuA-TyrOMe-Ahp-NMe3Pal4Me-aMeCl-ClAc)] ({CH2CO}-F[NMeOrn(Me)][Ala(pyrimidin-5-yl)][Cba]Y(Me)[Ahp(2)][NMe3Pal(6-Me)][αMeC]-NH2; thioether N-8)	> 50.8
CCCCC[C@@H]1NC(=O)[C@H](Cc2ccc(OC)cc2)NC(=O)[C@H](CC2CCC2)NC(=O)[C@H](Cc2ccc(N(C)C(=N)NC)cc2)NC(=O)[C@H](CCCNC)N(C)C(=O)[C@H](Cc2ccccc2)NC(=O)CSC[C@@](C)(C(N)=O)NC(=O)[C@H](Cc2ccc(C)nc2)N(C)C1=O [compound 395, cyclo(F-NMeOmMe-Phe4GnMeMe-cBuA-TyrOMe-Ahp-NMe3Pal4Me-aMeCl-ClAc)] ({CH2CO}-F[NMeOrn(Me)][X18][Cba]Y(Me)[Ahp(2)][NMe3Pal(6-Me)][αMeC]-NH2; thioether N-8)	> 50.8
CCCC[C@@H]1NC(=O)[C@H](Cc2cccnc2)NC(=O)[C@H](CCCN(C)C(=N)NC)N(C)C(=O)[C@H](Cc2ccccc2)OC(=O)CSC[C@@](C)(C(N)=O)NC(=O)[C@H](Cc2cccnc2)N(C)C(=O)[C@H](CCCC)NC(=O)[C@H](Cc2ccccc2F)NC1=O [compound 396, cyclo(FLac-NMeArg1MeMe-3Pal-Nle-Phe2F-Nle-NMe3Pal-aMeCl-ClAc)] ({CH2CO}-[PhLac][X22][3Pal][Nle][Phe(2-F)][Nle][NMe3Pal][αMeC]-NH2; thioether N-8)	> 50.8
CCCC[C@@H]1NC(=O)[C@H](Cc2ccc(N(C)C(=N)NC)cc2)NC(=O)[C@H](C)N(C)C(=O)[C@H](Cc2ccccc2)OC(=O)CSC[C@@](C)(C(N)=O)NC(=O)[C@H](Cc2cccnc2)N(C)C(=O)[C@H](CCCC)NC(=O)[C@H](Cc2ccccc2F)NC1=O [compound 397, cyclo(FLac-NMeA-Phe4GnMeMe-Nle-Phe2F-Nle-NMe3Pal-aMeCl-ClAc)] ({CH2CO}-[PhLac][NMeA][X18][Nle][Phe(2-F)][Nle][NMe3Pal][αMeC]-NH2; thioether N-8)	> 50.8
CCCC[C@@H]1NC(=O)[C@H](Cc2cccnc2)NC(=O)[C@H](C)N(C)C(=O)[C@H](Cc2ccccc2)OC(=O)CSC[C@@](C)(C(N)=O)NC(=O)[C@H](Cc2cccnc2)N(C)C(=O)[C@H](CCCC)NC(=O)[C@H](Cc2ccccc2F)NC1=O [compound 398, cyclo(FLac-NMeA-3Pal-Nlc-Phe2F-Nle-NMe3Pal-aMeCl-ClAc)] ({CH2CO}-[PhLac][NMeA][3Pal][Nle][Phe(2-F)][Nle][NMe3Pal][αMeC]-NH2; thioether N-8)	40.7
CCCC[C@@H]1NC(=O)[C@H](Cc2cnn(C)c2)NC(=O)[C@H](C)N(C)C(=O)[C@H](Cc2ccccc2)OC(=O)C23CC(CNC(=O)[C@H](Cc4cccnc4)N(C)C(=O)[C@H](CCCC)NC(=O)[C@H](Cc4ccccc4F)NC1=O)(C2)C3 [compound 400, cyclo(FLac-NMeA-Ala4PyzlMe-Nle-Phe2F-Nle-NMe3Pal-amBCP)] (cyclo([NMe3Pal][X1][PhLac][NMeA][X26][Nle][Phe(2-F)][Nle]))	31.4
CCCC[C@@H]1NC(=O)[C@H](Cc2cccnc2)NC(=O)[C@H](C)N(C)C(=O)[C@H](Cc2ccccc2)OC(=O)C23CC(CNC(=O)[C@H](Cc4ccc(C)nc4)N(C)C(=O)[C@H](CCCC)NC(=O)[C@H](Cc4ccccc4F)NC1=O)(C2)C3 [compound 402, cyclo(FLac-NMeA-3Pal-Nle-Phe2F-Nle-NMe3Pal4Me-amBCP)] (cyclo([3Pal][Nle][Phe(2-F)][Nle][NMe3Pal(6-Me)][X1][PhLac][NMeA]))	9.95
CCCC[C@@H]1NC(=O)[C@H](Cc2cccnc2)NC(=O)[C@H](C)N(C)C(=O)[C@H](Cc2ccccc2)OC(=O)C23CC(CNC(=O)[C@H](Cc4cnn(C)c4)N(C)C(=O)[C@H](CCCC)NC(=O)[C@H](Cc4ccccc4F)NC1=O)(C2)C3 [compound 403, cyclo(FLac-NMeA-3Pal-Nle-Phe2F-Nle-NMeAla4PyzlMe-amBCP)] (cyclo([3Pal][Nle][Phe(2-F)][Nle][X36][X1][PhLac][NMeA]))	18.6
